Literature values in patent EP1923060A1, “Combinations of a sphingolipid and an HMG-CoA reductase inhibitor for treating hypercholesterolemia” (Nederlandse Organisatie voor …, priority 2006, dated 2008).

Tests used:
[1] = system: galactosamine-injured primary rat hepatocytes; details: Kim et al., Phytotherapy Res. (2000) 14:448-451
[2] = in humans
[3] = system: C57bI mice; details: intraperitoneal injection; US 2004/0171557

CCCCCCCCC/C=C\CC/C=C/[C@@H](O)[C@H](CO[C@@H]1O[C@H](CO)[C@@H](O)[C@H](O)[C@H]1O)NC(=O)CCCCCCCCCCCCCCC [LCC, 1-O-(β-D-glucopyranosyl)-(2S,3R,4E,8Z)-2-N-palmityloctadecasphinga-4,8-diene]
release into the culture medium of GPT and SDH [1]: reduce the release

CCCCCCCCCCCCCC[C@@H](O)[C@@H](O)[C@@H](N)CO [phytosphingosine]
plasma (VLDL and LDL) cholesterol and triglyceride levels [2]: demonstrated decisively

glucocerebroside
liver fat content [3]: may be reduced
